From ChEMBL document CHEMBL1201862, “PubChem BioAssay data set” (2004)
One block for each compound: values may come before it. Activity calls are given as the source filed them.

Key:
[1] = tested on: HeLa; assay: HeLa cell cytotoxicity, dose response, cytotoxicity control for MITF activator project, CellTiter-Glo luminescence, cherry-pick samples (AID 540259); assay type: functional, cell-based; settings: Homo sapiens
[2] = tested on: Jurkat; assay: SAR Analysis of small molecule inhibitors of T-cell specific antigen receptor-induced NF-kB activation in a Jurkat cell line using a luminescence assay - Set 2. [Related pubchem assays (depositor defined):AID435003, AID435012, AID465]; assay type: functional, cell-based; settings: Homo sapiens
[3] = tested on: HEK293; assay: cytotoxicity in HEK293T NF-kB-Luc cells, SAR follow-up, cytotoxicity control for NF-kB activator project, cell-based, resazurin fluorescence (AID 493251); assay type: functional; settings: Homo sapiens
[4] = tested on: HEK293; assay: SAR Analysis of small molecule inhibitors of T-cell specific antigen receptor-induced NF-kB activation in a HEK-293T cell line using a luminescence assay - Set 2. [Related pubchem assays (depositor defined):AID435003, AID435012, AID489026]; assay type: functional, cell-based; settings: Homo sapiens
[5] = tested on: Escherichia coli; assay: microbe, parasite or virus in culture
[6] = target: T1, Cysteine protease ATG4B (Homo sapiens, UniProt Q9Y4P1); assay type: functional;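 further: Fluorescence-based dose-response confirmation assay measuring inhibition of ATG4B activity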
T1 sequence (Q9Y4P1 whole entry): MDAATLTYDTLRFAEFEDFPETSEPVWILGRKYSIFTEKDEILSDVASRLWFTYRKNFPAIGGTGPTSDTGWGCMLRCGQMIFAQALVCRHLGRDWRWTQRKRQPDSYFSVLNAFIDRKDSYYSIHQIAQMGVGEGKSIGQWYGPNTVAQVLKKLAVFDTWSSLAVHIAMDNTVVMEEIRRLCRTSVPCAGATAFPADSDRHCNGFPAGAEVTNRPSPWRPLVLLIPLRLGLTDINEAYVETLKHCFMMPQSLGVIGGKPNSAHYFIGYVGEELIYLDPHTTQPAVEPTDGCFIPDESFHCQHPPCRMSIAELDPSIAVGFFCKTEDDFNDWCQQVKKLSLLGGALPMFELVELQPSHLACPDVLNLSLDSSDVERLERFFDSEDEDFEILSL

[7] = tested on: Escherichia coli; assay: microbe, parasite or virus in culture; remark: listed apart in the source
[8] = target: T2, Protein Tat (Human immunodeficiency virus type 1 group M subtype B (isolate HXB2)(HIV-1), UniProt P04608); assay type: functional;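 further: tat binding to TAR RNA read out by fluorescence polarization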
T2 sequence (P04608 whole entry): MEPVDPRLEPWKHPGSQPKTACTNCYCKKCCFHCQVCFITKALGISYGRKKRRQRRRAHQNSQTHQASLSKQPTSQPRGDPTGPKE

[9] = target: T3, Zinc finger protein mex-5 (Caenorhabditis elegans, UniProt Q9XUB2); assay: MEX-5/TCR-2 RNA interaction inhibitors, dose response, biochemical, C. elegans, fluorescence polarization (AID 1960)
T3 sequence (Q9XUB2 whole entry): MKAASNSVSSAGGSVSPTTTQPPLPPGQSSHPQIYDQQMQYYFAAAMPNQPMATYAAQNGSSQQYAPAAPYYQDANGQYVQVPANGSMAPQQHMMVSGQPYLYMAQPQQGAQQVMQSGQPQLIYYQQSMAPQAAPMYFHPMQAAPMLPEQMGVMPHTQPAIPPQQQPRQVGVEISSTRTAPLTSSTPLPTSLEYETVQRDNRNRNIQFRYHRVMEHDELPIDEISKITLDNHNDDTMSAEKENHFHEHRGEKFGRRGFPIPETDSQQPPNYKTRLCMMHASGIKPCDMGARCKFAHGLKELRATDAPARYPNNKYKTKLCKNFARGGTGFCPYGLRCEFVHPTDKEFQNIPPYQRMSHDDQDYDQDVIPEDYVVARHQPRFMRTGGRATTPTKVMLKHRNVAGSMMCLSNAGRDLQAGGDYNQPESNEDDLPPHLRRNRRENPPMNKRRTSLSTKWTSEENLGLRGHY

[10] = target: Phospholipase A2 (Homo sapiens, UniProt P04054); assay type: functional;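 further: confirmatory dose-response counterscreen on phospholipase A2, testing hits that came from an ultra-high-throughput screen for ATG4B inhibitors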
Sequence of Phospholipase A2 (P04054 whole entry): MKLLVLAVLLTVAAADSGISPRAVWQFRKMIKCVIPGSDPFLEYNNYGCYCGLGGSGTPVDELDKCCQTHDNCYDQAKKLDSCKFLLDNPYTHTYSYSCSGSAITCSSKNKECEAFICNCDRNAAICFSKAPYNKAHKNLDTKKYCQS

[11] = THP-1 cell cytotoxicity, dose response, cytotoxicity control for Vif-APOBEC3G degradation inhibitor project, THP-1 cells (AID 1117359); assay type: functional; settings: Human immunodeficiency virus 1, THP-1
[12] = target: Dual specificity tyrosine-phosphorylation-regulated kinase 1A (Rattus norvegicus, UniProt Q63470); assay type: biochemical, Homo sapiens

Compound: Cc1ccc(NC(=O)C(=O)NCc2ccccn2)cc1
AC50 [1]: > 350 µM (inactive)

Compound: Cc1ccc(C(NC(=O)C(C)C)c2ccc3cccnc3c2O)cc1 (configuration not stated)
IC50 [2]: 3.26 µM (active) | IC50 [3]: 8.28 µM (active) | IC50 [4]: 6.33 µM (active)

Compound: C[C@H]1c2cccc(O)c2C(=O)C2=C(O)[C@]3(O)C(=O)C(C(N)=O)=C(O)[C@@H](N(C)C)[C@@H]3[C@@H](O)[C@@H]21
AC50 [5]: 20.8 µM (active) | IC50 [6]: 10.4 µM (active) | AC50 [7]: 0.783 µM (active) | IC50 [8]: > 100 µM (active) | EC50 [9]: 37.9 µM (active) | IC50 [10]: 42.9 µM (inactive) | CC50 [11]: 36 µM (active)

AC50 [12]: 0.104 µM (active)
Compound: COc1ccc(C=C2SC(=S)NC2=O)cc1
